# Measurements from PubChem BioAssay AID2060503 (Molecular Pharmacology Branch, DTP, NCI, 2025).
# System: 817829-284-R-J1-PDC complex spheroids, viability
# Test: Anticancer human tumor 817829-284-R-J1-PDC patient-derived colon adenocarcinoma cell line growth inhibition [GQUAD]
# Conditions: for IC50: curve of first compound; for viability, T/C: stronger effect = lower value
# How it was run: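 Viability of tumor cells grown as complex spheroids with endothelial and stromal cells, exposed to drug combinations. Top concentration at or near clinical Cmax (else 10 microM), diluted in half-log increments.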
# [1] = second compound 0.0316 µM, first compound 0.0316 µM
# [2] = second compound 0.0316 µM, first compound 0.316 µM
# [3] = second compound 0.1 µM, first compound 0.0316 µM
# [4] = second compound 0.1 µM, first compound 0.316 µM
# [5] = second compound 0.316 µM, first compound 0.0316 µM
# [6] = second compound 0.316 µM, first compound 0.316 µM
# [7] = second compound 1 µM, first compound 0.0316 µM
# [8] = second compound 1 µM, first compound 0.316 µM
# [9] = second compound 3.16 µM, first compound 0.0316 µM
# [10] = second compound 3.16 µM, first compound 0.316 µM
# [11] = second compound 10 µM, first compound 0.0316 µM
# [12] = second compound 10 µM, first compound 0.316 µM
# [13] = second compound 0.0316 µM, first compound 0.000999 µM
# [14] = second compound 0.0316 µM, first compound 0.00316 µM
# [15] = second compound 0.0316 µM, first compound 0.00999 µM
# [16] = second compound 0.0316 µM, first compound 0.0999 µM
# [17] = second compound 0.1 µM, first compound 0.000999 µM
# [18] = second compound 0.1 µM, first compound 0.00316 µM
# [19] = second compound 0.1 µM, first compound 0.00999 µM
# [20] = second compound 0.1 µM, first compound 0.0999 µM
# [21] = second compound 0.316 µM, first compound 0.000999 µM
# [22] = second compound 0.316 µM, first compound 0.00316 µM
# [23] = second compound 0.316 µM, first compound 0.00999 µM
# [24] = second compound 0.316 µM, first compound 0.0999 µM
# [25] = second compound 1 µM, first compound 0.000999 µM
# [26] = second compound 1 µM, first compound 0.00316 µM
# [27] = second compound 1 µM, first compound 0.00999 µM
# [28] = second compound 1 µM, first compound 0.0999 µM
# [29] = second compound 3.16 µM, first compound 0.000999 µM
# [30] = second compound 3.16 µM, first compound 0.00316 µM
# [31] = second compound 3.16 µM, first compound 0.00999 µM
# [32] = second compound 3.16 µM, first compound 0.0999 µM
# [33] = second compound 10 µM, first compound 0.000999 µM
# [34] = second compound 10 µM, first compound 0.00316 µM
# [35] = second compound 10 µM, first compound 0.00999 µM
# [36] = second compound 10 µM, first compound 0.0999 µM
# 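Further: spheroids exposed to agents for 7 days before readout.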
# 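Wherever viability, T/C is given: percent viability relative to DMSO vehicle control taken as 100%.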
structure (smiles),measurement,setting,value
O=c1[nH]cc(F)c(=O)[nH]1 + CN(C)c1ccc(Nc2c3ccc(NC(=O)CCN4CCCC4)cc3nc3cc(NC(=O)CCN4CCCC4)ccc23)cc1,IC50,second compound 0.0316 µM,2120 nM
same,IC50,second compound 0.1 µM,2450 nM
same,IC50,second compound 0.316 µM,2400 nM
same,IC50,second compound 1 µM,2700 nM
same,IC50,second compound 3.16 µM,2510 nM
same,IC50,second compound 10 µM,2690 nM
same,"viability, T/C",[1],112%
same,"viability, T/C","second compound 0.0316 µM, first compound 0.1 µM",104%
same,"viability, T/C",[2],119%
same,"viability, T/C","second compound 0.0316 µM, first compound 1 µM",73.4%
same,"viability, T/C","second compound 0.0316 µM, first compound 3.16 µM",44.2%
same,"viability, T/C","second compound 0.0316 µM, first compound 10 µM",30.7%
same,"viability, T/C",[3],101%
same,"viability, T/C","second compound 0.1 µM, first compound 0.1 µM",102%
same,"viability, T/C",[4],94.3%
same,"viability, T/C","second compound 0.1 µM, first compound 1 µM",84.3%
same,"viability, T/C","second compound 0.1 µM, first compound 3.16 µM",39.9%
same,"viability, T/C","second compound 0.1 µM, first compound 10 µM",29.3%
same,"viability, T/C",[5],102%
same,"viability, T/C","second compound 0.316 µM, first compound 0.1 µM",106%
same,"viability, T/C",[6],97.1%
same,"viability, T/C","second compound 0.316 µM, first compound 1 µM",78.7%
same,"viability, T/C","second compound 0.316 µM, first compound 3.16 µM",40.7%
same,"viability, T/C","second compound 0.316 µM, first compound 10 µM",29.6%
same,"viability, T/C",[7],99.5%
same,"viability, T/C","second compound 1 µM, first compound 0.1 µM",101%
same,"viability, T/C",[8],108%
same,"viability, T/C","second compound 1 µM, first compound 1 µM",83%
same,"viability, T/C","second compound 1 µM, first compound 3.16 µM",45.7%
same,"viability, T/C","second compound 1 µM, first compound 10 µM",31.6%
same,"viability, T/C",[9],91.2%
same,"viability, T/C","second compound 3.16 µM, first compound 0.1 µM",96.7%
same,"viability, T/C",[10],102%
same,"viability, T/C","second compound 3.16 µM, first compound 1 µM",74.1%
same,"viability, T/C","second compound 3.16 µM, first compound 3.16 µM",45.4%
same,"viability, T/C","second compound 3.16 µM, first compound 10 µM",29%
same,"viability, T/C",[11],102%
same,"viability, T/C","second compound 10 µM, first compound 0.1 µM",95.9%
same,"viability, T/C",[12],100%
same,"viability, T/C","second compound 10 µM, first compound 1 µM",80.5%
same,"viability, T/C","second compound 10 µM, first compound 3.16 µM",45.3%
same,"viability, T/C","second compound 10 µM, first compound 10 µM",31.9%
CCc1c2c(nc3ccc(O)cc13)-c1cc3c(c(=O)n1C2)COC(=O)[C@]3(O)CC + Cc1cnc(CNC(=O)c2c(=O)c3ccc(N4CCCN(C)CC4)nc3n3c2sc2ccccc23)cn1,IC50,second compound 0.0316 µM,< 0.999 nM
same,IC50,second compound 0.1 µM,< 0.999 nM
same,IC50,second compound 0.316 µM,< 0.999 nM
same,IC50,second compound 1 µM,< 0.999 nM
same,IC50,second compound 3.16 µM,< 0.999 nM
same,IC50,second compound 10 µM,< 0.999 nM
same,"viability, T/C",[13],40.3%
same,"viability, T/C",[14],25.9%
same,"viability, T/C",[15],28.9%
same,"viability, T/C",[1],14.1%
same,"viability, T/C",[16],8.12%
same,"viability, T/C",[2],3.77%
same,"viability, T/C",[17],33.5%
same,"viability, T/C",[18],29.6%
same,"viability, T/C",[19],18.2%
same,"viability, T/C",[3],15.5%
same,"viability, T/C",[20],6.99%
same,"viability, T/C",[4],2.92%
same,"viability, T/C",[21],21.6%
same,"viability, T/C",[22],27.2%
same,"viability, T/C",[23],22%
same,"viability, T/C",[5],14.4%
same,"viability, T/C",[24],7.47%
same,"viability, T/C",[6],2.52%
same,"viability, T/C",[25],19.5%
same,"viability, T/C",[26],25.2%
same,"viability, T/C",[27],17.8%
same,"viability, T/C",[7],13.5%
same,"viability, T/C",[28],6.88%
same,"viability, T/C",[8],0.52%
same,"viability, T/C",[29],20.3%
same,"viability, T/C",[30],17.8%
same,"viability, T/C",[31],15.5%
same,"viability, T/C",[9],10.7%
same,"viability, T/C",[32],3.99%
same,"viability, T/C",[10],0.15%
same,"viability, T/C",[33],0.09%
same,"viability, T/C",[34],0.14%
same,"viability, T/C",[35],0.17%
same,"viability, T/C",[11],0.14%
same,"viability, T/C",[36],0.16%
same,"viability, T/C",[12],0.16%
CC[C@@]1(O)C(=O)OCc2c1cc1n(c2=O)Cc2cc3c(CN(C)C)c(O)ccc3nc2-1 + Cc1cnc(CNC(=O)c2c(=O)c3ccc(N4CCCN(C)CC4)nc3n3c2sc2ccccc23)cn1,IC50,second compound 0.0316 µM,9.66 nM
same,IC50,second compound 0.1 µM,< 0.999 nM
same,IC50,second compound 0.316 µM,< 0.999 nM
same,IC50,second compound 1 µM,< 0.999 nM
same,IC50,second compound 3.16 µM,< 0.999 nM
same,IC50,second compound 10 µM,< 0.999 nM
same,"viability, T/C",[13],78.1%
same,"viability, T/C",[14],61%
same,"viability, T/C",[15],54.5%
same,"viability, T/C",[1],33.9%
same,"viability, T/C",[16],33.8%
same,"viability, T/C",[2],28.5%
same,"viability, T/C",[17],29.2%
same,"viability, T/C",[18],37.9%
same,"viability, T/C",[19],32.2%
same,"viability, T/C",[3],31%
same,"viability, T/C",[20],28%
same,"viability, T/C",[4],23.1%
same,"viability, T/C",[21],24.8%
same,"viability, T/C",[22],26.8%
same,"viability, T/C",[23],26.9%
same,"viability, T/C",[5],25%
same,"viability, T/C",[24],26%
same,"viability, T/C",[6],20.5%
same,"viability, T/C",[25],20.3%
same,"viability, T/C",[26],24.9%
same,"viability, T/C",[27],24.4%
same,"viability, T/C",[7],22.9%
same,"viability, T/C",[28],23.8%
same,"viability, T/C",[8],22.6%
same,"viability, T/C",[29],22.5%
same,"viability, T/C",[30],21.7%
same,"viability, T/C",[31],20.3%
same,"viability, T/C",[9],19.2%
same,"viability, T/C",[32],20%
same,"viability, T/C",[10],16.1%
same,"viability, T/C",[33],0.08%
same,"viability, T/C",[34],0.14%
same,"viability, T/C",[35],0.19%
same,"viability, T/C",[11],0.16%
same,"viability, T/C",[36],0.22%
same,"viability, T/C",[12],0.17%
